According to patent publication US20110190373A1, “METHODS AND COMPOSITIONS FOR THE TREATMENT OR PREVENTION OF PATHOLOGICAL CARDIAC REMODELING AND HEART FAILURE” (UNIVERSITY OF ROCHESTER, priority 2008, published 2011):
“Also recorded” adds a separate entry of the source.

Columns and labels:
[1] = system: rat neonatal cardiomyocytes; assay: PE-induced cardiomyocyte hypertrophy, myocyte (cell) surface area; assay type: cell-based; settings: NRVM
Experimental: (§1) FIGS. 3A-C show the effects of PDE1 inhibitors on pathological cardiomyocyte hypertrophy. Myocyte hypertrophy was induced in NRVM by α-adrenergic agonist, phenylephrine (PE). Hypertrophy was assessed by protein synthesis by measuring [^3H]-leucine incorporation (normalized to the total DNA content), or by myocyte surface area. PDE inhibitor 8-MM-IBMX (at 10 μM the concentration selective to PDE1) blocked PE-induced cardiomyocyte protein synthesis measured by [^3H]-leucine incorporation (FIG. 3A) or measured by myocyte surface area (FIG. 3B).
Effects of PDE1 inhibitor 8-MM-IBMX on PE-stimulated cell hypertrophic growth were measured by cell surface area (FIG. 3B). Rat neonatal cardiomyocytes were treated with either […] or vehicle, followed without (ctrl) or with PE stimulation. Cells were stained for α-actinin (a cardiomyocyte specific marker) to exclude the contamination of cardiac fibroblasts. At lease 100 α-actinin positive cells were analyzed. Cell surface area was measured by Image J program.
Effects of PDE1 inhibitor vinpocetine on PE-stimulated cell hypertrophic growth were measured by cell surface area (FIG. 3C). Rat neonatal cardiomyocytes were treated with either 20 μM Vinpocetine (vinp) or vehicle, followed without (ctrl) or with PE stimulation. Cell surface area was measured as above. Data were normalized to control (vehicle, without PE) that was arbitrarily set to 1.0. Data are means of at least 100 cells (mean±SD). […]
(§2) FIG. 4A illustrates a representative Western blot showing PDE1A protein expression in neonatal cardiomyocytes either not transfected (NT), or transfected with off-targeting control siRNA (1 μg) or rat PDE1A siRNA (0.5 or 1.0 μg) for 72 hours via electroporation. […] Protein synthesis assessed by [^3H]-leucine incorporation (normalized to the total DNA content) in NRVM transfected with 1 μg of control siRNA or PDE1A siRNA followed by PE (50 μmol/L) or vehicle (ctrl) stimulation for 48 hours (FIG. 4B). […] Data were quantified by densitometry in a linear range and normalized to GAPDH mRNA levels. […]

[2] = system: rat neonatal cardiomyocytes; assay: PE-induced cardiomyocyte hypertrophy, protein synthesis by [3H]-leucine incorporation; assay type: cell-based; settings: NRVM
Experimental: as §1
Rat neonatal cardiomyocytes were cultured in serum-free medium for 24 hours. […] Cells were lysed and ^3H-leucine incorporation in cell lysates were then measured by scintillation counter. […]
as §2

[3] = therapeutic doses, patients; cited from earlier work
[4] = system: mouse cardiac hypertrophy; assay: Cardiac hypertrophy induced by chronic ISO infusion in mice; assay type: in vivo; settings: i.p. 10 mg/kg/d, ISO 30 mg/kg/d for 7 days
Experimental: FIGS. 5A-F illustrate that Vinpocetine attenuates cardiac hypertrophy in vivo. C57 mice received continuous vehicle (0.002% ascorbic acid in PBS) or ISO (30 mg/kg/d) infusion via osmotic pumps for 7 days, and also received daily DMSO or Vinpocetine treatment (i.p. 10 mg/kg/d). Control group (Con): mice receiving only vehicle infusion for 7 days. ISO group: mice receiving ISO infusion and DMSO treatment for 7 days. ISO+Vinp group: mice receiving ISO infusion and vinpocetine treatment for 7 days. After 7 days, animals were sacrificed and hearts were excised, weighed, frozen in −80° C. for mRNA assay, or fixed in 10% formalin for histology analysis. FIG. 5A are representative gross heart images showing effects of PDE1 inhibitor on cardiac hypertrophy. FIGS. 5B-C are graphs showing the effect of Vinpocetine on heart to body weight ratio or heart weight to tibial length ratio, respectively. […] FIGS. 5E-F are graphs showing the effect of Vinpocetine on ANP and BNP mRNA expression, respectively. Total RNA from left ventricles were subjected to real-time RT-PCR analyses for the mRNA levels of ANP and BNP. Data were normalized to control and sham samples that were arbitrarily set to 1.0. Data represent mean of 4 animals (mean±SEM). **P<0.01 vs. control mice. ##P<0.01 vs. ISO-infused mice without Vinpocetine. […] PDE1 is a well known biological target for Vinpocetine. […] Based on these reasons, the effects of Vinpocetine were tested on cardiomyocyte hypertrophy in vivo.

[5] = 20 μM, α-actinin positive cells

SMILES	PE-induced hypertrophy measured by myocyte surface area ([1]; 10 μM (figure legend))	PE-induced hypertrophy measured by myocyte surface area [1, 5]	PE-induced cardiomyocyte protein synthesis measured by [3H]-leucine incorporation ([2]; 10 μM (figure legend))	PE-induced hypertrophy assessed by protein synthesis with 3H-leucine incorporation ([2]; 20 μmol/L, PE 48 hours, normalized to DNA content)	side effects, toxicity or contraindications [3]	ISO-induced increase in cross-section areas of cardiomyocytes in left ventricles ([4]; H&E staining)	cardiac hypertrophy measured by gross heart morphology ([4]; mouse)	heart weight/body weight (HW/BW) ratio ([4]; mouse)	heart weight/tibia length (HW/TL) ratio ([4]; mouse)	ANP mRNA level in left ventricle ([4]; real-time RT-PCR)	BNP mRNA level in left ventricle ([4]; real-time RT-PCR)
COCc1nc2c([nH]1)c(=O)n(C)c(=O)n2CC(C)C [8-MM-IBMX, 8-methoxymethyl-isobutylmethylxanthine]	blocked	significantly attenuated	blocked	significantly attenuated	–	–	–	–	–	–	–
CCOC(=O)C1=C[C@]2(CC)CCCN3CCc4c(n1c1ccccc41)[C@@H]32 [Vinpocetine, (+)-vinpocetine]	–	significantly reduced; also recorded: significantly blocked	–	–	no reports of significant side effects, toxicity or contraindications	significantly attenuated	significantly reduced	significantly reduced	significantly reduced	significantly decreased	significantly decreased
